Test results reported in patent publication US10913744B2, “LRRK2 inhibitors and methods of making and using the same” (Dana-Farber Cancer Institute, Inc., priority 2015, dated 2021).
Where two headings read alike, the source gives them in different places.

Assays:
GSK3b = GSK3b (Homo sapiens (Human), UniProt P49841); assay: Dundee profiling
ITK = ITK (Homo sapiens (Human), UniProt Q08881); assay: KinomeScan; assay type: binding; details: 1 uM
JNK1 [1] = target: T1, JNK1 (Homo sapiens (Human), UniProt P45983); assay: Dundee profiling
ERK5 = ERK5 (Homo sapiens (Human), UniProt Q13164); assay: Dundee profiling
DYRK2 = DYRK2 (Homo sapiens (Human), UniProt Q92630); assay: Dundee profiling
IGF-1R = IGF-1R (Homo sapiens (Human), UniProt P08069); assay: Dundee profiling
Lck = Lck (Homo sapiens (Human), UniProt P06239); assay: Dundee profiling
JNK3 = JNK3 (Homo sapiens (Human), UniProt P53779); assay: KinomeScan; assay type: binding; details: 1 uM
HIPK2 = HIPK2 (Homo sapiens (Human), UniProt Q9H2X6); assay: Dundee profiling
MET (Y1235D) = MET (Y1235D) (Homo sapiens (Human), UniProt P08581, Y1235D); assay: KinomeScan; assay type: binding; details: 1 uM
ARK5 = ARK5 (Homo sapiens (Human), UniProt O60285); assay: KinomeScan; assay type: binding; details: 1 uM
SIK = SIK (Homo sapiens (Human), UniProt P57059); assay: KinomeScan; assay type: binding; details: 1 uM
JNK1 [2] = target: T1, JNK1; assay: KinomeScan; assay type: binding; details: 1 uM
HIPK1 = HIPK1 (Homo sapiens (Human), UniProt Q86Z02); assay: Dundee profiling
CSK = CSK (Homo sapiens (Human), UniProt P41240); assay: Dundee profiling
MKK6 = MKK6 (Homo sapiens (Human), UniProt P52564); assay: Dundee profiling
DDR2 = DDR2 (Homo sapiens (Human), UniProt Q16832); assay: Dundee profiling
MST2 = MST2 (Homo sapiens (Human), UniProt Q13188); assay: Dundee profiling
wild type LRRK2 = wild type LRRK2 (Homo sapiens (Human), UniProt Q5S007); assay: LRRK2 enzyme kinase assay, wild type; assay type: biochemical; details: Table 1; ATP at Km 36 μm; read-out: Enzyme IC50 wt
MARK2 = MARK2 (Homo sapiens (Human), UniProt Q7KZI7); assay: Dundee profiling
PIM2 = PIM2 (Homo sapiens (Human), UniProt Q9P1W9); assay: Dundee profiling
IKKb = IKKb (Homo sapiens (Human), UniProt O14920); assay: Dundee profiling
HIPK3 = HIPK3 (Homo sapiens (Human), UniProt Q9H422); assay: Dundee profiling
DCAMKL1 = DCAMKL1 (Homo sapiens (Human), UniProt O15075); assay: KinomeScan; assay type: binding; details: 1 uM
RIPK2 = RIPK2 (Homo sapiens (Human), UniProt O43353); assay: Dundee profiling
MARK4 = MARK4 (Homo sapiens (Human), UniProt Q96L34); assay: Dundee profiling
MKK7 = MKK7 (Homo sapiens (Human), UniProt O14733); assay: KinomeScan; assay type: binding; details: 1 uM
IRAK1 = IRAK1 (Homo sapiens (Human), UniProt P51617); assay: Dundee profiling
[3] = target: RSK4 (Kin.Dom.1-N-terminal) (Homo sapiens (Human), UniProt Q9UK32); assay: KinomeScan; assay type: binding; details: 1 uM
LOK = LOK (Homo sapiens (Human), UniProt O94804); assay: KinomeScan; assay type: binding; details: 1 uM
TGFBR1 = TGFBR1 (Homo sapiens (Human), UniProt P36897); assay: Dundee profiling
DYRK3 = DYRK3 (Homo sapiens (Human), UniProt O43781); assay: Dundee profiling
RSK1 = RSK1 (Homo sapiens (Human), UniProt Q15418); assay: Dundee profiling
PKBb = PKBb (Homo sapiens (Human), UniProt P31751); assay: Dundee profiling
[4] = read-out: percent remaining enzymatic activity, I1, 1 μM
[5] = read-out: percent remaining enzymatic activity, I10
[6] = read-out: percent remaining enzymatic activity

T1 sequence (P45983 whole entry, species assumed): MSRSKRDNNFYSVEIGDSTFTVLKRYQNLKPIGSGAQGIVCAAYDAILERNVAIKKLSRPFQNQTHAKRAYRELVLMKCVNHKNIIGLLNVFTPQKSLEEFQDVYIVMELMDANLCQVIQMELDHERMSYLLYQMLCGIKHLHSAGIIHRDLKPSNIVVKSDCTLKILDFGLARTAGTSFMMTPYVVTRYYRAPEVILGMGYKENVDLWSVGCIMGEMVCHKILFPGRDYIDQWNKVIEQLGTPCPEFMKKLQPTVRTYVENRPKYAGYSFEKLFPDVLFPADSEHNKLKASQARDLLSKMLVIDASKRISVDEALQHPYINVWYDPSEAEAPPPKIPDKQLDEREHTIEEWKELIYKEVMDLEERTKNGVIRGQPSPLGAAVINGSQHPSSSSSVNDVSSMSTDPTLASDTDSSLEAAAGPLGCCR
Chain of PKBb (P31751 whole entry): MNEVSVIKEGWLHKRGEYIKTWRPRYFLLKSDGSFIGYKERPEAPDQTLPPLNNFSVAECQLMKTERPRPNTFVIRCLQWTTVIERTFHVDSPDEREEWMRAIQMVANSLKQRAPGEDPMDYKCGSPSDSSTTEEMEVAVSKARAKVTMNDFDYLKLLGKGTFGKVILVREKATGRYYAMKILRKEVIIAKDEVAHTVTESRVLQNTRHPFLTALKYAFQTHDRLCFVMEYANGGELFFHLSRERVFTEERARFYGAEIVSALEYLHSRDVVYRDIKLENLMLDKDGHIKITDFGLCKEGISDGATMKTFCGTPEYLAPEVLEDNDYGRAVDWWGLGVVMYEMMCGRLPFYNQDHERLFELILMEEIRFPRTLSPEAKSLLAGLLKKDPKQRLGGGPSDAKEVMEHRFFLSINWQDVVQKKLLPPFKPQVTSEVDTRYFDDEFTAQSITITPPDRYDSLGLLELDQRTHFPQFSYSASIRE
Chain of MARK4 (Q96L34 whole entry, looked up, species assumed): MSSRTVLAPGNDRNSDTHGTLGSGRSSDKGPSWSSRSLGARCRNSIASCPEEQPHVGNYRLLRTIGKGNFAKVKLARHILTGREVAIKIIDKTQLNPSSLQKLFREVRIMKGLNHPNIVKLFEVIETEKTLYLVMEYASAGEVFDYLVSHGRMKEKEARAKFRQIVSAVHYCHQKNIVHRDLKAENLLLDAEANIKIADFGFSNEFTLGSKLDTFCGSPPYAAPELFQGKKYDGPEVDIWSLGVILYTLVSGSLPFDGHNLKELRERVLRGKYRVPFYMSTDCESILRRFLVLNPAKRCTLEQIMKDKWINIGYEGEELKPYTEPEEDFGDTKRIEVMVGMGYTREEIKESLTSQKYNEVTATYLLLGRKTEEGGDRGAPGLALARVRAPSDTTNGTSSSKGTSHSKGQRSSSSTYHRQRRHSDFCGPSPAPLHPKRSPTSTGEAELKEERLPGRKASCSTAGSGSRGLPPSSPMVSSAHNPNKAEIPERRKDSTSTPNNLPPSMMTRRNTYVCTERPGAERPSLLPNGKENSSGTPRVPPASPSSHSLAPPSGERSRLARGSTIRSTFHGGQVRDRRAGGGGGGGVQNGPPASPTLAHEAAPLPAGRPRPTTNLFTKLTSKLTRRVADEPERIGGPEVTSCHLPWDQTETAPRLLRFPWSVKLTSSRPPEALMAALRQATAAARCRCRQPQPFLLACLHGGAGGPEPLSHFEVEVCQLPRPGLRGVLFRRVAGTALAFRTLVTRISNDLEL
Chain of HIPK3 (Q9H422 whole entry, looked up, species assumed): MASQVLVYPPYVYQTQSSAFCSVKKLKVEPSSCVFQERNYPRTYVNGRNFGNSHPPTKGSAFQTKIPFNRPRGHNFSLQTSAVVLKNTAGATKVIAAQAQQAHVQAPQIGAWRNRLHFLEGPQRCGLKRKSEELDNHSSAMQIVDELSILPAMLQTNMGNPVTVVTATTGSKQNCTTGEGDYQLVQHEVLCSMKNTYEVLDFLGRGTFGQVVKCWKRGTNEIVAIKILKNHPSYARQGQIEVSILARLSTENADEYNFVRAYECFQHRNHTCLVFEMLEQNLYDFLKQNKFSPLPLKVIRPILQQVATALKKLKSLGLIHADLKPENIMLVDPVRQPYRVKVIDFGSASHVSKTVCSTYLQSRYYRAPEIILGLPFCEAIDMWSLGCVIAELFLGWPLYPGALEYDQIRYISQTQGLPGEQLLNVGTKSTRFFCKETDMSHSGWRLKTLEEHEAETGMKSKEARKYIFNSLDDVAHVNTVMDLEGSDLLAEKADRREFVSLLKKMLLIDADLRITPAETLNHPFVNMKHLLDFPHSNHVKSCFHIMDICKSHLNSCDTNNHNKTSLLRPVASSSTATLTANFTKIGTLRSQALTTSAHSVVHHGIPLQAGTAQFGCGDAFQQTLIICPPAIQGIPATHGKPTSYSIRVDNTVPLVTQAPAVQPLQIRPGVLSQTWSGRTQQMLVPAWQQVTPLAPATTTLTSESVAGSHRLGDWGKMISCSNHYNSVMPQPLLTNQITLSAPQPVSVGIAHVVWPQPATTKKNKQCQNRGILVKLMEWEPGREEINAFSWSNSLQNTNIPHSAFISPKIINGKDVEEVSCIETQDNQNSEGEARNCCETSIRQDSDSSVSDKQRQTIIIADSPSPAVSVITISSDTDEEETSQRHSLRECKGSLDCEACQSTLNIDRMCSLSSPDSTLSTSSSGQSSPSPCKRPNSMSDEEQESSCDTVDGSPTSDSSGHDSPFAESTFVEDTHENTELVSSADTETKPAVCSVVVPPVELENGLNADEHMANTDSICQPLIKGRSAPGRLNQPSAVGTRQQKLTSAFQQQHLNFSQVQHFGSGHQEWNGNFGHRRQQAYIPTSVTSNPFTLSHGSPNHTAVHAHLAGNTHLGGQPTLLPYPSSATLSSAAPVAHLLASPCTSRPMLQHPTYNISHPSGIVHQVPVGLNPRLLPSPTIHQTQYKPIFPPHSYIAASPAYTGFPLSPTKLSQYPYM
Chain of CSK (P41240 whole entry, looked up, species assumed): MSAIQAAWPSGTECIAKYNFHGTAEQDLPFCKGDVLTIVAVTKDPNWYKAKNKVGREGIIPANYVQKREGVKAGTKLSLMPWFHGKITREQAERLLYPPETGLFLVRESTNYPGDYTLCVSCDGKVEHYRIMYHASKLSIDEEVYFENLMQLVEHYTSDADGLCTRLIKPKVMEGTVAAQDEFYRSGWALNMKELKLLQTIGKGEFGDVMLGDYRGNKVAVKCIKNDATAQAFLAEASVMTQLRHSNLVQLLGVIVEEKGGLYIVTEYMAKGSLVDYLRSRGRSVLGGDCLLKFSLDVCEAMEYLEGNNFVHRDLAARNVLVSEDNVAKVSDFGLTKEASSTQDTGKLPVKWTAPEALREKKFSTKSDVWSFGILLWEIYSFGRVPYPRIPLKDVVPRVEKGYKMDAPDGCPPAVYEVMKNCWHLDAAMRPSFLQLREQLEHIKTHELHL
Chain of DYRK2 (Q92630 whole entry, looked up, species assumed): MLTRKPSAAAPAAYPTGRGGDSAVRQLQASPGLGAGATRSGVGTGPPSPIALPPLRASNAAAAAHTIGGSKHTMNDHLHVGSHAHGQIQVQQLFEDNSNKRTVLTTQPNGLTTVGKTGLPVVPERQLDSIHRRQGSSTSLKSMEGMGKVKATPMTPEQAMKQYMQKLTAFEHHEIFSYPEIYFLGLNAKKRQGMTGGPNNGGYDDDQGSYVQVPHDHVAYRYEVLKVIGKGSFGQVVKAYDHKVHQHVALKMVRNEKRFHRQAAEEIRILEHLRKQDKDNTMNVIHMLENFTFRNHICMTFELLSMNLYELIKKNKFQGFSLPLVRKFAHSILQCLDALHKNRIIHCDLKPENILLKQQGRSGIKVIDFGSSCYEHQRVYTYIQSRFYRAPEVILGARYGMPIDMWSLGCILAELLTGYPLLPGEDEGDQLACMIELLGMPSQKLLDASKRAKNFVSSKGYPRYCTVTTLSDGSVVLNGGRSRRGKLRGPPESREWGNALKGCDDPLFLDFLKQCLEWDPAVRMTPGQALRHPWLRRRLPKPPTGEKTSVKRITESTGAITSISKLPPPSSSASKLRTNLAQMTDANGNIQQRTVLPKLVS
Chain of TGFBR1 (P36897 34-503, species assumed): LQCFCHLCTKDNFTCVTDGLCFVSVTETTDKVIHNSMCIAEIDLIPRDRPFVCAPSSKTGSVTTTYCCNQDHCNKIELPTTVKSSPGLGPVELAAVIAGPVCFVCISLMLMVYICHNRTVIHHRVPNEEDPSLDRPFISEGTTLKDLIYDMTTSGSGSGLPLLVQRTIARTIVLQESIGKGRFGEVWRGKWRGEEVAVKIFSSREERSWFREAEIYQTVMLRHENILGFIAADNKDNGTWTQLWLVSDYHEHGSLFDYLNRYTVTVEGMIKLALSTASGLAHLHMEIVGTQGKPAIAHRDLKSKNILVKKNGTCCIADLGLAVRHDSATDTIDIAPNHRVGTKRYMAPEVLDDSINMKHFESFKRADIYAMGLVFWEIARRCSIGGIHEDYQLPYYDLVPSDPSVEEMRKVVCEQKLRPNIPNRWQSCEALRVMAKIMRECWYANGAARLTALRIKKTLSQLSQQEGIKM
Chain of MST2 (Q13188 whole entry, looked up, species assumed): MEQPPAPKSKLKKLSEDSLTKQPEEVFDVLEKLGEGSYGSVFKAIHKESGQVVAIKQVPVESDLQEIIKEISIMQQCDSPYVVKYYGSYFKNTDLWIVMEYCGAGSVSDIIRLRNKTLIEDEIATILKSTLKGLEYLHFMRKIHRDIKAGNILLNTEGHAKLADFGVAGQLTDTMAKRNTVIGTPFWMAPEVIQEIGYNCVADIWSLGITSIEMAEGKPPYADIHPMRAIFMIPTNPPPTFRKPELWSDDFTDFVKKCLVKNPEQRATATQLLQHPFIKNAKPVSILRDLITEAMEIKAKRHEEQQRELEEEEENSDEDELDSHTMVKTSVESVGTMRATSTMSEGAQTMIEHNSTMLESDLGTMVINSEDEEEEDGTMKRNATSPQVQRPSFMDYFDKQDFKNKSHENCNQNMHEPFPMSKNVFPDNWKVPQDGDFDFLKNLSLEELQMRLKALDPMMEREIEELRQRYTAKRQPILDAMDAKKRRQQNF

## CNc1nc(Nc2ccc(C(=O)N3CCOCC3)cc2OC)nc2[nH]cc(Cl)c12 [Compound 18, (4-((5-chloro-4-(methylamino)-7H-pyrrolo[2,3-d]pyrimidin-2-yl)amino)-3-methoxyphenyl)(morpholino)methanone]
GSK3b; [4]
  remaining activity at 1 µM: 82%
GSK3b; [5]
  remaining activity at 1 µM: 97%
ITK
  KinomeScan value: 88
JNK1 [1]; I10
  percent remaining enzymatic activity: 6%
JNK1 [1]; [6]
  remaining activity at 1 µM: 38%
ERK5; [4]
  remaining activity at 1 µM: 76%
ERK5; [5]
  remaining activity at 1 µM: 52%
DYRK2; [4]
  remaining activity at 1 µM: 67%
DYRK2; [5]
  remaining activity at 1 µM: 18%
IGF-1R; [4]
  remaining activity at 1 µM: 13%
IGF-1R; [5]
  remaining activity at 1 µM: 9%
Lck; [4]
  remaining activity at 1 µM: 97%
Lck; [5]
  remaining activity at 1 µM: 111%
JNK3
  KinomeScan value: 67
HIPK2; [4]
  remaining activity at 1 µM: 84%
HIPK2; [5]
  remaining activity at 1 µM: 43%
MET (Y1235D)
  KinomeScan value: 100
ARK5
  KinomeScan value: 89
SIK
  KinomeScan value: 94
JNK1 [2]
  KinomeScan value: 60
HIPK1; [4]
  remaining activity at 1 µM: 95%
HIPK1; [5]
  remaining activity at 1 µM: 44%
CSK; I10
  percent remaining enzymatic activity: 92%
CSK; [6]
  remaining activity at 1 µM: 89%
MKK6; [4]
  remaining activity at 1 µM: 37%
MKK6; [5]
  remaining activity at 1 µM: 11%
DDR2; [4]
  remaining activity at 1 µM: 98%
DDR2; [5]
  remaining activity at 1 µM: 93%
MST2; [4]
  remaining activity at 1 µM: 90%
MST2; [5]
  remaining activity at 1 µM: 82%
Wild type LRRK2
  IC50: 6.5 nM
MARK2; [4]
  remaining activity at 1 µM: 101%
MARK2; [5]
  remaining activity at 1 µM: 82%
PIM2; [4]
  remaining activity at 1 µM: 95%
PIM2; [5]
  remaining activity at 1 µM: 82%
IKKb; [4]
  remaining activity at 1 µM: 100%
IKKb; [5]
  remaining activity at 1 µM: 95%
HIPK3; [4]
  remaining activity at 1 µM: 106%
HIPK3; [5]
  remaining activity at 1 µM: 93%
DCAMKL1
  KinomeScan value: 74
RIPK2; [4]
  remaining activity at 1 µM: 102%
RIPK2; [5]
  remaining activity at 1 µM: 83%
MARK4; I10
  percent remaining enzymatic activity: 98%
MARK4; [6]
  remaining activity at 1 µM: 109%
MKK7
  KinomeScan value: 100
IRAK1; [4]
  remaining activity at 1 µM: 109%
IRAK1; [5]
  remaining activity at 1 µM: 92%
[3]
  KinomeScan value: 93
LOK
  KinomeScan value: 100
TGFBR1; [4]
  remaining activity at 1 µM: 128%
TGFBR1; [5]
  remaining activity at 1 µM: 119%
DYRK3; [4]
  remaining activity at 1 µM: 74%
DYRK3; [5]
  remaining activity at 1 µM: 30%
RSK1; [4]
  remaining activity at 1 µM: 96%
RSK1; [5]
  remaining activity at 1 µM: 60%
PKBb; [4]
  remaining activity at 1 µM: 118%
PKBb; [5]
  remaining activity at 1 µM: 103%
